Data from the supplement of paper PMC8671470.

What was measured:
Conditions in all cases: 72 h
HL-60 [1] = test: cell viability (% survival relative to DMSO control); higher = less cytotoxic
How it was run: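 Four-parameter log-logistic fits in drc and PharmacoGx supplied area under the curve where it is given. Underlying viability came from CellTiter-Glo, normalised to DMSO and proteasome-inhibitor wells, with the proteasome inhibitor at 10 μM. HL-60 cells in RPMI 1640 plus 10% FBS had been rescreened against the full library at five tenfold concentrations of 1–10,000 nM, in duplicate on 384-well plates, with DMSO or 100 nM of one of three metabolic inhibitors, for 72 h at 37 °C, 5% CO2.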

NOMO-1 [2] = test: cell viability (% survival relative to DMSO control, bortezomib = 0%); higher = less cytotoxic
How it was run: (§1)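 After 72 h at 37 °C with 5% CO2, cell viability in 384-well plates was measured by CellTiter-Glo luminescence. The plates held compounds pre-printed at 1, 10, 100, 1000 or 10000 nM in duplicate, and cells from 10 AML and 5 CML lines seeded at densities titrated to linear growth. Percent survival is the duplicate mean, normalised to vehicle as 100% and a 10 µM positive control as 0%.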

HEL [3] = test: as above
How it was run: as §1

LAMA-84 [4] = test: as above
How it was run: as §1

BV-173 [5] = test: as above
How it was run: as §1

KU-812 [6] = test: as above
How it was run: as §1

K-562 [7] = test: as above
How it was run: as §1

ML-2 [8] = test: as above
How it was run: as §1

SHI-1 [9] = test: as above
How it was run: as §1

THP-1 [10] = test: as above
How it was run: as §1

HL-60 [11] = test: as above
How it was run: as §1

Mono-Mac-6 [12] = test: as above
How it was run: as §1

MV4-11 [13] = test: as above
How it was run: as §1

NOMO-1 [14] = test system: NOMO-1
How it was run: (§2)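 Each of fifteen myeloid leukaemia cell lines was seeded in RPMI 1640 at a density titrated to its linear growth range. The cells were incubated for 72 h at 37 °C and 5% CO2 with compounds at five tenfold doses from 1 to 10,000 nM, in duplicate. After ATP luminescence was normalised to vehicle and to a positive control at 10 µM, four-parameter log-logistic curves were fitted. These curves gave the IC50.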

HEL [15] = test system: HEL
How it was run: as §2

MOLM-13 = test system: MOLM-13
How it was run: as §2

LAMA-84 [16] = test system: LAMA-84
How it was run: as §2

BV-173 [17] = test system: BV-173
How it was run: as §2

KU-812 [18] = test system: KU-812
How it was run: as §2

K-562 [19] = test system: K-562
How it was run: as §2

ML-2 [20] = test system: ML-2
How it was run: as §2

KCL-22 = test system: KCL-22
How it was run: as §2

SHI-1 [21] = test system: SHI-1
How it was run: as §2

THP-1 [22] = test system: THP-1
How it was run: as §2

HL-60 [23] = test system: HL-60
How it was run: as §2

KG-1 = test system: KG-1
How it was run: as §2

Mono-Mac-6 [24] = test system: Mono-Mac-6
How it was run: as §2

MV4-11 [25] = test system: MV4-11
How it was run: as §2

O=c1cc(-c2ccccc2)oc2cc(O)c(O)c(O)c12 [Baicalein]
cell viability [%], HL-60 [1]
Conditions	0.001 µM	0.01 µM	0.1 µM	1 µM	10 µM
co-treatment: AZD3965 100 nM	99.72	100	103	97.6	101.4
co-treatment: DMSO vehicle	102.7	102	101	98.895	102
co-treatment: GSK2194069 100 nM	97.26	102	93.5	98.1	99.8
co-treatment: pictilisib 100 nM	99.21	106	98.9	106	89.5

cell viability [%]
Conditions	1 nM	10 nM	100 nM	1000 nM	10000 nM
BV-173 [5]	100	99.5	96.2	154	64.2
HEL [3]	108	88.2	109	137	75.4
HL-60 [11]	110	86.7	114	85.3	43
K-562 [7]	104	104	102	108	45.6
KU-812 [6]	93.5	94.1	99.4	108	61.4
LAMA-84 [4]	98.2	99.6	94.4	104	75
ML-2 [8]	98.9	93.2	87.5	97.9	37.7
MV4-11 [13]	97.8	102	98.7	113	54
Mono-Mac-6 [12]	103	102	99.2	117	75.4
NOMO-1 [2]	99.2	91.3	104	123	98.2
SHI-1 [9]	109	92	126	97.2	82.8
THP-1 [10]	99.4	95.6	93.5	92.5	85.9

Conditions	IC50 (cell viability) [µM]
BV-173 [17]	> 10
HEL [15]	> 10
HL-60 [23]	4.39
K-562 [19]	9.24
KCL-22	> 10
KG-1	6.35
KU-812 [18]	> 10
LAMA-84 [16]	> 10
ML-2 [20]	8.18
MOLM-13	> 10
MV4-11 [25]	> 10
Mono-Mac-6 [24]	> 10
NOMO-1 [14]	> 10
SHI-1 [21]	> 10
THP-1 [22]	> 10
